In US11338004B2, “Composition for preventing or treating cranial nerve disease comprising fomes fomentarius extract, fraction thereof, or compound isolated therefrom as active ingredient” (priority 2015, dated 2022):

Columns and labels:
IL-1β = IL-1β in LPS-treated BV2 cells; format: cell-based, mouse; set-up: unit not given here
Experimental: (§1) A mouse BV2 cell line was stored and maintained in a humidified incubator at 37° C. under a 5% CO2 condition using a DMEM culture medium supplemented with 10% FBS, 100 U/ml of penicillin and 100 μg/ml of streptomycin, was trypsinized, and was subcultured.
(§2) BV2 cells were placed in a 6-well plate at 7.5×10^5 cells/well, and stabilized at 37° C. and 5.0% CO2 for 12 hours. After that, LPS and the Fomes fomentarius CHCl3 fractions, the nonadecanone (2-Nonadecanone) or the docosenol (cis-13-Docosenol) compounds were placed according to groups and were incubated for 1 hour. The cell culture was collected and used for cytokine analysis. All the cell culture was removed, and then 1 ml of dPBS was dispensed to each well to wash and remove the wells. 200 μl of the lysis buffer was dispensed per well and the cells attached to the bottom of the well were removed with a cell scriper, and then were slowly mixed and reacted for […] on ice at 4° C. The cells were removed with a scriper again and all the lysis solution was collected. The collected lysis solution was centrifuged at 15,000 rpm for 15 minutes at 4° C. so that only the supernatant was collected. In order to plot standard curves for protein quantification, a standard BSA solution ([…]) and a dilution were prepared in which bradford solution and D.W. were diluted with 4:1. After the bradford dilution was dispensed in each 200 μl to 96-well, the standard BSA solution and the cell lysis supernatant were dispersed in a volume of 10 μl per well, and then they were mixed by pipetting. After 10 minutes, the protein was quantitated by measuring the absorbance at 595 nm in a reader. The subsequent procedures were carried out in the same manner as in the quantitative analysis of the protein of Example 3-3.

[1] = DPPH radical scavenging activity
Experimental: The present experiment used the property that the hydrazyl of diphenylpicrylhydrazyl (DPPH) used in the present experiment has a property of easily accepting a hydrogen atom since the nitrogen atom is unstable, so as to react with the antioxidant material to accept the hydrogen atom to lose its own orthochromatism.
(§3) First, in order to measure DPPH radical scavenging activity of the Fomes fomentarius fraction, 1.9 ml of 0.2 mM DPPH solution (99.5% ethanol) was added to 0.1 ml of solutions (control: 99.5% ethanol) in which the concentrated dried material of each Fomes fomentarius substance was prepared at 7 concentrations of 10, 20, 40, 80, 160, 320 and 640 μg/ml, respectively. The mixture was shaken with a vortex mixer for 10 seconds and then incubated at 37° C. for 30 minutes. Then, the absorbance was measured at 517 nm using a spectrophotometer.
As a positive control drug, L-ascorbic acid was prepared at […] of 10, 20, 40, 80, 160, 320, and 640 μg/mL (99.5% ethanol).
The present inventors measured DPPH radicals scavenging activity in the same manner as in Example <2-2> above using nonadecanone (2-nonadecanone) and docosenol (cis-13-Docosenol) compounds found in the above and Fomes fomentarius CHCl3 fraction of the present disclosure.
as §3, with “Acer tegmentosum maxim extract,” for “Fomes fomentarius fraction,”, “Acer tegmentosum maxim material” for “Fomes fomentarius substance”
As a positive control, L-ascorbic acid was prepared at […] of 10, 20, 40, 80, 160, 320, and 640 μg/mL (99.5% ethanol).
as §3, with “berchemia berchemiaefolia extract,” for “Fomes fomentarius fraction,”, “berchemia berchemiaefolia material” for “Fomes fomentarius substance”
as §3, with “Lithospermum erythrorhizon extract,” for “Fomes fomentarius fraction,”, “Lithospermum erythrorhizon material” for “Fomes fomentarius substance”

p38 = test: Western blotting of LPS-induced p38 phosphorylation in BV2 cells; format: cell-based, mouse
Experimental: as §2

IL-6 = IL-6 in LPS-treated BV2 cells; format: cell-based, mouse; set-up: unit not given here
Experimental: as §1, §2

SMILES	IL-1β level (IL-1β; 5 μg/ml)	IL-1β level (IL-1β; 20 μg/ml)	IL-1β level (IL-1β; 50 μg/ml)	IL-1β level (IL-1β; 100 μg/ml)	DPPH radical scavenging activity (% antioxidant activity) ([1]; 10 μg/mL) [%]	DPPH radical scavenging activity (% antioxidant activity) ([1]; 20 μg/mL) [%]	DPPH radical scavenging activity (% antioxidant activity) ([1]; 40 μg/mL) [%]	DPPH radical scavenging activity (% antioxidant activity) ([1]; 80 μg/mL) [%]	DPPH radical scavenging activity (% antioxidant activity) ([1]; 160 μg/mL) [%]	DPPH radical scavenging activity (% antioxidant activity) ([1]; 320 μg/mL) [%]	DPPH radical scavenging activity (% antioxidant activity) ([1]; 640 μg/mL) [%]	p-p38/p-38 ratio (%), expression ratio (vehicle 100%) (p38; 5 μg/ml)	p-p38/p-38 ratio (%), expression ratio (vehicle 100%) (p38; 20 μg/ml)	p-p38/p-38 ratio (%), expression ratio (vehicle 100%) (p38; 50 μg/ml)	p-p38/p-38 ratio (%), expression ratio (vehicle 100%) (p38; 100 μg/ml)	IL-6 level (IL-6; 5 μg/ml)	IL-6 level (IL-6; 20 μg/ml)	IL-6 level (IL-6; 50 μg/ml)	IL-6 level (IL-6; 100 μg/ml)
CCCCCCCC/C=C\CCCCCCCCCCCCO [docosenol, cis-13-Docosenol]	65.15±7.6	59.12±6.1	50.55±4.2	48.19±5.8	1.3±0.4	2.6±0.2	5.8±0.6	7.7±0.6	6.6±0.7	8.8±1.1	10.6±0.9	about 69%	about 48%	about 36%	about 25%	301.56±7.6	249.35±10.1	171.68±5.5	138.51±6.8
CCCCCCCCCCCCCCCCCC(C)=O [nonadecanone, 2-Nonadecanone]	70.12±4.8	65.56±5.1	58.11±6.5	43.66±3.4	5.6±0.9	8.9±0.8	11.6±1.1	13.5±1.4	14.6±1.0	16.8±2.1	20.5±1.8	about 75%	about 54%	about 42%	about 29%	451.25±6.9	441.61±7.1	389.64±10.1	351.85±8.7
